Reference: ChEMBL document CHEMBL1152235, “(3R)-3-amino-4-(2,4,5-trifluorophenyl)-N-{4-[6-(2-methoxyethoxy)benzothiazol-2-yl]tetrahydropyran-4-yl}butanamide as a potent dipeptidyl peptidase IV inhibitor for the treatment of type 2 diabetes” (Bioorg Med Chem Lett, 2008)
Active and inactive are the calls of the source. The rule behind the calls is not given here.

What was measured:
[1] = rat, microsomes
[2] = human, microsomes
[3] = mouse, microsomes
Description: Metabolic stability in mouse microsomes assessed as intrinsic clearance

[4] = test system: Mus musculus; assay: Reduction in blood glucose excursion in ICR mouse at 30 mg/kg, po administered 30 mins prior to glucose challenge by glucose tolerance test; type: functional, organism-based; parameters: dose 30 mg/kg
[5] = test system: Rattus norvegicus; assay: Inhibition of DPP4 in po dosed Sprague-Dawley rat plasma; type: functional

SMILES | CL [1] | CL [2] | CL [3] | Activity [4] | Activity [5] | ED50 ([5]; read-out: ID50 (the source's name))
N[C@@H](CC(=O)NC1(c2nc3ccccc3s2)CCS(=O)(=O)CC1)Cc1cc(F)c(F)cc1F | 64.4 µL/min/mg | 39.9 µL/min/mg |  |  |  | 
N[C@@H](CC(=O)NC1(c2nc3ccccc3s2)CCS(=O)(=O)CC1)Cc1ccccc1F | 73.4 µL/min/mg | 34.6 µL/min/mg |  |  |  | 
COc1ccc2nc(C3(NC(=O)C[C@H](N)Cc4cc(F)c(F)cc4F)CCS(=O)(=O)CC3)sc2c1 | 42.3 µL/min/mg | 32.3 µL/min/mg |  |  |  | 
COCCOc1ccc2nc(C3(NC(=O)C[C@H](N)Cc4cc(F)c(F)cc4F)CCS(=O)(=O)CC3)sc2c1 | 21.9 µL/min/mg | 46.6 µL/min/mg | 34.1 µL/min/mg |  |  | 
N[C@@H](CC(=O)NC1(c2nc3ccc(OCCN4CCOCC4)cc3s2)CCS(=O)(=O)CC1)Cc1cc(F)c(F)cc1F | 26 µL/min/mg | 92.8 µL/min/mg | 34.5 µL/min/mg |  |  | 
COCCOc1ccc2nc(C3(NC(=O)C[C@H](N)Cc4cc(F)c(F)cc4F)CCOCC3)sc2c1 | 49.6 µL/min/mg | 21.9 µL/min/mg | 22.1 µL/min/mg | Active | Dose-dependent effect | 2.7 mg/kg
COCCOc1ccc2nc(C3(NC(=O)C[C@H](N)Cc4cc(Cl)ccc4F)CCS(=O)(=O)CC3)sc2c1 | 31.5 µL/min/mg | 63.8 µL/min/mg | 33 µL/min/mg |  |  | 
COCCOc1ccc2nc(C3(NC(=O)C[C@H](N)Cc4cc(Cl)ccc4F)CCOCC3)sc2c1 | 98.1 µL/min/mg | 34.2 µL/min/mg | 28.6 µL/min/mg |  |  | 
C[C@]12CC[C@H]3[C@@H](CCC4=CC(=O)CC[C@@]43C)[C@@H]1CC[C@@H]2O [TESTOSTERONE] | 375.6 µL/min/mg | 109.3 µL/min/mg | 312.6 µL/min/mg |  |  | 
COc1ccc2nc(C3(NC(=O)C[C@H](N)Cc4ccccc4F)CCS(=O)(=O)CC3)sc2c1 | 51.5 µL/min/mg | 26.2 µL/min/mg |  |  |  | 
